Assay results as given in patent publication US20070110751A1, “Compositions and methods for reducing infarct size” (priority 2005, published 2007).
Like-named read-outs stand apart in the source and are kept apart here.

Tests used:
Cdk2 = biological target: T1, Cdk2 (Mus musculus, UniProt P97377); assay: Cdk2 immune complex kinase assay on ventricular lysates of treated mice (histones H1 as substrate); format: in vivo; conditions: DETA/NO 0.1 mg/kg x 4 i.v. 24 hours before I/R, compared to vehicle-treated hearts
T1 construct: Cdk2 complexes were immunoprecipitated from ventricular lysates from each of the indicated treatment groups; from tissue; host or cells: mouse heart ventricle (C57/BL6 mice, treated in vivo)
Experimental: (§1) Complexes were immunoprecipitated from 300 μg of total protein lysates from each of the indicated treatment groups. ^32P-labeling of histones H1 was measured using a standard Cdk2 kinase assay.
Ventricular lysates were probed for the indicated proteins.
Western blotting was performed using the identical protein lysates. Antibodies were purchased from Santa Cruz Biotechnology (Santa Cruz). Protein expression was visualized using horseradish peroxidase-conjugated second antibodies and enhanced chemiluminescence reagents (Amersham Biosciences). Nonsaturated autoradiographs were quantitated with SigmaScan.
Cdk2 complexes were immunoprecipitated from ventricular lysates from each of the indicated treatment groups.

C57/BL6 mice = format: in vivo, mouse
Experimental: as §1, with “assay. […] IFS in DETA/NO-treated mice compared to control Vehicle-treated mice are shown (*P<0.05; n=4 per group).” for “assay.”
IFS in Roscovitine-treated mice compared to control vehicle-treated mice are shown (*P<0.001; n=6 per group). […] Ventricular lysates were probed for the indicated proteins. Mean IFS sizes after 24 hours of reperfusion are shown. (*P<0.05 for Cdk2^+/+ versus Cdk2^−/− IFS; n=5 per group).
Male mice were subjected to myocardial ischemia/reperfusion as previously described (Wang, G., et al. 2005. Am. J. Physiol. Heart Circ. Physiol 288:H1290-H1295). Pentobarbital-anesthetized (50 mg/kg body wt i.p.) mice were intubated for positive pressure ventilation with oxygen-enriched room air during the surgical procedure. After left thoracotomy between ribs three and four, the pericardium was opened and a silk 8-0 suture was looped under the left anterior descending coronary artery 1-3 mm from the tip of the normally positioned left atrium. Ischemia was induced by ligation of the suture (a 1 to 2 mm section of PE-10 tubing was placed between the suture and the artery to prevent damage to the vessel). Rectal temperature was continuously measured and maintained at 36.5-37.5° C. Following a 30-min coronary artery occlusion, the suture was removed to allow coronary reperfusion followed by closure of the chest wall. After 24 hours of coronary artery reperfusion the heart was excised and postmortem perfused as previously described (Wang, G., et al. 2005. Am. J. Physiol. Heart Circ. Physiol 288:H1290-H1295). The infarct region was determined by perfusion with a 1% solution of 2,3,5-triphenyltetrazolium chloride (TTC) in phosphate buffer (pH 7.4, 37° C.). To delineate the risk region, the coronary artery was tied at the site of the previous occlusion and the aortic root perfused with a 1% solution of Evans blue dye. Infarct size was measured by planimetry with NIH Image and expressed as a percentage of the area at risk.
Limitation of IFS by pharmacological delayed preconditioning of the heart was induced with the nitric oxide donor diethylenetriamine/nitric oxide (DETA/NO) as previously reported (Wang, G., et al. 2005. Am. J. Physiol. Heart Circ. Physiol 288:H1290-H1295). After dissecting free the left jugular vein in pentobarbital-anesthetized WT mice, DETA/NO was given in 4 boluses 24-hours prior to 30-min coronary artery occlusion (0.1 mg/kg×4, i.v.).

| SMILES | Cdk2 activity in hearts after 30 minutes of ischemia (Cdk2) | Cdk2 activity in hearts after 30 minutes of ischemia (Cdk2; listed as NO donor) | infarct size (IF % of the A@R) (C57/BL6 mice; DETA/NO 0.1 mg/kg x 4 i.v. 24 hours before 30-min coronary occlusion, wildtype mice, mean ± SEM, P<0.05 vs vehicle, n=4 per group) | reduction in infarct size compared to vehicle treated mice (C57/BL6 mice; DETA/NO 0.1 mg/kg x 4 i.v. 24 hours before I/R injury, vs vehicle) [%] | reduction in infarct size compared to vehicle treated mice (C57/BL6 mice; Roscovitine 2.8 mg/gm i.p. two hours prior to ischemia, 30 min occlusion, 24 h reperfusion, vs DMSO vehicle) [%] | infarct size (IFS % of A@R) (C57/BL6 mice; Roscovitine 2.8 mg/gm intraperitoneally two hours prior to ischemia, 30 min LAD occlusion, 24 h reperfusion, mean ± SEM, P<0.001 vs vehicle (DMSO), n=6 per group) |
| --- | --- | --- | --- | --- | --- | --- |
| NCCN(CCN)/[N+]([O-])=N/O [DETA/NO, diethylenetriamine/nitric oxide] | decreased Cdk2 activity | blocked the upregulation of Cdk2 | 35.0±3.7 IF % of the A@R | 32 |  |  |
| CC[C@H](CO)Nc1nc(NCc2ccccc2)c2ncn(C(C)C)c2n1 [Roscovitine, 6-Benzylamino-2-(R)-[(1-ethyl)-2-hydroxyethylamino]-9-isopropyl-purine] |  |  |  |  | 36.7 | 34.2±2.6 IFS % of A@R |
